Measured values from patent US20250346600A1, “TRICYCLIC DERIVATIVES AND RELATED USES” (MOMA Therapeutics, Inc., priority 2023, published 2025).
Where two headings read alike, the source gives them in different places.

What was measured:
HCT116 cells = assay: HCT116 (MSI) 7 day viability, CellTiter Glo; type: cell-based; settings: 7 days, read-out: HCT116 (MSI) Viability 7 Day Abs AC50
Procedure, shortened: (§1)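 For each line, compound dilution series (3-fold, 10 points) met a defined seeding density—HCT116 50, HT29 500 cells/well—followed by 7 days at 37 °C. Luminescent ATP signal, background-corrected with no-cell wells, gave four-parameter logistic IC50s.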

[1] = target: T1, Full length WRN protein (aa 2-1432) (Homo sapiens (Human), UniProt Q14191); assay: WRN ATPase ADP-Glo biochemical assay, Assay Format B (100 μM ATP); settings: 0.25 nM WRN, 100 nM C6.18 ssDNA, 60 min preincubation, read-out: ATPase ADPGlo AC50 (uM)- Assay Format B
T1 sequence (Q14191 2-1432): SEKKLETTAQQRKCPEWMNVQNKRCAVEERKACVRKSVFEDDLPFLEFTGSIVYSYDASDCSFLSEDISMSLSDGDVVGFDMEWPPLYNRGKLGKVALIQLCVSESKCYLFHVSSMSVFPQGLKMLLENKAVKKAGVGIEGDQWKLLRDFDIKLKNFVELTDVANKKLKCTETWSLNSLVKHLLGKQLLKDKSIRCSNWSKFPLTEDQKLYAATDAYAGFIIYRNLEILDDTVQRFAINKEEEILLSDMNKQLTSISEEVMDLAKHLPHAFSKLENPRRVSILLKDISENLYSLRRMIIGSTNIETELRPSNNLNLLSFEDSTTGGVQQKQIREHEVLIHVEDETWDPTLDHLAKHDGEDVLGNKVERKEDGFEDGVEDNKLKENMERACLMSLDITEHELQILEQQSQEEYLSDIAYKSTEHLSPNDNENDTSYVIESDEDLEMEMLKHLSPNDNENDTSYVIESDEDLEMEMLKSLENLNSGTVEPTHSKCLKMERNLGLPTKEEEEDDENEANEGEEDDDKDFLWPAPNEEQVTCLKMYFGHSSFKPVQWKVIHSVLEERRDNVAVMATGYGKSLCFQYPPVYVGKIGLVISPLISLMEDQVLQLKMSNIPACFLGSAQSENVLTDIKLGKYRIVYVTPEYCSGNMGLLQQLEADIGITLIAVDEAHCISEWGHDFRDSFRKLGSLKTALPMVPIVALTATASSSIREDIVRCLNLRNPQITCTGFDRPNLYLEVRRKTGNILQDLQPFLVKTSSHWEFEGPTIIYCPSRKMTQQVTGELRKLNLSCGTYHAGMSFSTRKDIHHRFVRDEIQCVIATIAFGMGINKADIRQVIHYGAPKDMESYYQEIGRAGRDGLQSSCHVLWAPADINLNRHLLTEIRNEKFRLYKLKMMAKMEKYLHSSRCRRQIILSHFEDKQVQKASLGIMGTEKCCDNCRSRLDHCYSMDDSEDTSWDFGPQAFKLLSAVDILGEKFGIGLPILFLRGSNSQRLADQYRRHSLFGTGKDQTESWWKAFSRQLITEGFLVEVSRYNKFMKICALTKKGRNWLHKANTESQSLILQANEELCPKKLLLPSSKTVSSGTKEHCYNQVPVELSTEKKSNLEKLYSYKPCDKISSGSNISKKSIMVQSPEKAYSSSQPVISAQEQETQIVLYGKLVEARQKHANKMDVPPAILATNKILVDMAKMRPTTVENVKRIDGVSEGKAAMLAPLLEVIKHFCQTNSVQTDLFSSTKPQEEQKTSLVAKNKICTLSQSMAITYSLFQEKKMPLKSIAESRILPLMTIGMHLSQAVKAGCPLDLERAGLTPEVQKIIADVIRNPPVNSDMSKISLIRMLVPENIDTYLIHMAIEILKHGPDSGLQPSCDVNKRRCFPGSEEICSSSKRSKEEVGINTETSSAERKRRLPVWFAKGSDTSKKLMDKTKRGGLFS

HT29 cells = assay: HT29 (MSS) 7 day viability, CellTiter Glo; type: cell-based; settings: 7 days, read-out: HT29 (MSS) Viability 7 Day CTGAbs AC50
Procedure, shortened: as §1

[2] = target: T1, Full length WRN protein (aa 2-1432); assay: WRN ATPase ADP-Glo biochemical assay, Assay Format A (10 μM ATP); settings: 0.25 nM WRN, 100 nM C6.18 ssDNA, 30 min preincubation, read-out: ATPase ADPGlo AC50 (uM)- Assay Format A
Procedure, shortened: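 ADP-Glo luminescence measured hydrolysis of ATP by purified, baculovirus-expressed N-terminally tagged full-length WRN. Enzyme (0.5 nM) was preincubated 30 min with compound, then 200 nM ssDNA C6.18 plus 20 μM ATP were added (pre-mix levels) for 30 min at RT. IC50s come from four-parameter fits, geometric mean of at least two trials.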

| AC50 [1] | AC50 [2] | SMILES | AC50 (HCT116 cells; Homo sapiens, HCT-116, 168 h) | AC50 (HT29 cells; Homo sapiens, HT-29, 168 h) | AC50 (HCT116 cells) | AC50 (HT29 cells) |
| --- | --- | --- | --- | --- | --- | --- |
| > 0.055 µM | 0.0015 to 0.005 µM | C=CC(=O)N1CCc2nn(-c3ccc(C4CCC4)cc3O)c3c2C(C1)N(C(=O)c1cnc(Br)c(OC(F)(F)F)c1)CC3 (stereo not drawn) [Compound 62, 1-(5-(6-bromo-5-(trifluoromethoxy)nicotinoyl)-2-(4-cyclobutyl-2-hydroxyphenyl)-2,3,4,5,5a,6,8,9-octahydro-7H-1,2,5,7-tetraazabenzo[cd]azulen-7-yl)prop-2-en-1-one] | 100 to 250 nM | > 3000 nM |  |  |
| 0.015 to 0.055 µM | 0.0015 to 0.005 µM | C=CC(=O)N1CCc2nn(-c3ccc(C(C)C)cc3)c3c2C(C1)N(C(=O)c1ccc(C(F)(F)F)c(=O)[nH]1)CC3 (stereo not drawn) [Compound 58, 6-(7-acryloyl-2-(4-isopropylphenyl)-3,4,5,5a,6,7,8,9-octahydro-2H-1,2,5,7-tetraazabenzo[cd]azulene-5-carbonyl)-3-(trifluoromethyl)pyridin-2(1H)-one] | 100 to 250 nM | > 3000 nM |  |  |
| 0.005 to 0.015 µM | < 0.0015 µM | C=CC(=O)N1CC(C)c2nn(-c3ccc(C4CCC4)cc3O)c3c2C(C1)N(C(=O)c1cnc(C(F)(F)F)cc1N)CC3 (stereo not drawn) [Compound 135, 1-(5-(4-amino-6-(trifluoromethyl)nicotinoyl)-2-(4-cyclobutyl-2-hydroxyphenyl)-9-methyl-2,3,4,5,5a,6,8,9-octahydro-7H-1,2,5,7-tetraazabenzo[cd]azulen-7-yl)prop-2-en-1-one] |  |  | 1 to 100 nM | > 3000 nM |
| 0.015 to 0.055 µM | 0.0015 to 0.005 µM | C=CC(=O)N1CCc2nn(-c3ccc(C4CCC4(F)F)cc3O)c3c2C(C1)N(C(=O)c1ccc(Br)c2[nH]cnc12)CC3 (stereo not drawn) [Compound 6, 1-(5-(7-bromo-1H-benzo[d]imidazole-4-carbonyl)-2-(4-(2,2-difluorocyclobutyl)-2-hydroxyphenyl)-2,3,4,5,5a,6,8,9-octahydro-7H-1,2,5,7-tetraazabenzo[cd]azulen-7-yl)prop-2-en-1-one] | 1 to 100 nM | > 3000 nM |  |  |
| 0.005 to 0.015 µM | < 0.0015 µM | C=CC(=O)N1CCc2nn(-c3ccc(C4CC4)cc3O)c3c2C(C1)N(C(=O)c1cnc(C(F)(F)F)cc1N)CC3 (stereo not drawn) [Compound 163, 1-(5-(4-amino-6-(trifluoromethyl)nicotinoyl)-2-(4-cyclopropyl-2-hydroxyphenyl)-2,3,4,5,5a,6,8,9-octahydro-7H-1,2,5,7-tetraazabenzo[cd]azulen-7-yl)prop-2-en-1-one] | 1 to 100 nM | > 3000 nM |  |  |
| 0.0015 to 0.005 µM | < 0.0015 µM | C=CC(=O)N1CC(F)c2nn(-c3ccc(C4CCC4)cc3)c3c2C(C1)N(C(=O)c1ccc(Br)c2[nH]cnc12)CC3 (stereo not drawn) [Compound 28, 1-(5-(7-bromo-1H-benzo[d]imidazole-4-carbonyl)-2-(4-cyclobutylphenyl)-9-fluoro-2,3,4,5,5a,6,8,9-octahydro-7H-1,2,5,7-tetraazabenzo[cd]azulen-7-yl)prop-2-en-1-one] | 1 to 100 nM | 1000 to 3000 nM |  |  |
| > 0.055 µM | 0.015 to 0.055 µM | C=C(F)C(=O)N1CCc2nn(-c3ccc(C(C)C)cc3)c3c2C(C1)N(C(=O)c1ccc(Br)c2[nH]cnc12)CC3 (stereo not drawn) [Compound 17, 1-(5-(7-bromo-1H-benzo[d]imidazole-4-carbonyl)-2-(4-isopropylphenyl)-2,3,4,5,5a,6,8,9-octahydro-7H-1,2,5,7-tetraazabenzo[cd]azulen-7-yl)-2-fluoroprop-2-en-1-one] | > 1000 nM | > 3000 nM |  |  |
| 0.005 to 0.015 µM | < 0.0015 µM | C=CC(=O)N1CCc2nn(-c3ccc(C4CCC4)cc3O)c3c2C(C1)N(C(=O)c1cnc(C(F)(F)F)cc1O)CC3 (stereo not drawn) [Compound 149, 1-(2-(4-cyclobutyl-2-hydroxyphenyl)-5-(4-hydroxy-6-(trifluoromethyl)nicotinoyl)-2,3,4,5,5a,6,8,9-octahydro-7H-1,2,5,7-tetraazabenzo[cd]azulen-7-yl)prop-2-en-1-one] | 250 to 500 nM | > 3000 nM |  |  |
| 0.005 to 0.015 µM | 0.0015 to 0.005 µM | C=CC(=O)N1CCc2nn(-c3ccc(C4CC4)cc3O)c3c2C(C1)N(C(=O)c1cnc(OC(F)(F)F)c(F)c1N)CC3 (stereo not drawn) [Compound 247, 1-(5-(4-amino-5-fluoro-6-(trifluoromethoxy)nicotinoyl)-2-(4-cyclopropyl-2-hydroxyphenyl)-2,3,4,5,5a,6,8,9-octahydro-7H-1,2,5,7-tetraazabenzo[cd]azulen-7-yl)prop-2-en-1-one] | 1 to 100 nM | > 3000 nM |  |  |
| > 0.055 µM | > 0.055 µM | C=CC(=O)N1CCc2nn(-c3ccc(C4CC4)cc3)c3c2C(C1)N(C(=O)c1ccn(CC(F)(F)F)c(=O)c1)CC3 (stereo not drawn) [Compound 68, 4-(7-acryloyl-2-(4-cyclopropylphenyl)-3,4,5,5a,6,7,8,9-octahydro-2H-1,2,5,7-tetraazabenzo[cd]azulene-5-carbonyl)-1-(2,2,2-trifluoroethyl)pyridin-2(1H)-one] | > 1000 nM | > 3000 nM |  |  |
| 0.015 to 0.055 µM | < 0.0015 µM | C=CC(=O)N1CCc2nn(-c3ccc(C(C)C)cc3)c3c2C(C1)N(C(=O)c1ccc(Br)c2c1CCO2)CC3 (stereo not drawn) [Compound 65, 1-(5-(7-bromo-2,3-dihydrobenzofuran-4-carbonyl)-2-(4-isopropylphenyl)-2,3,4,5,5a,6,8,9-octahydro-7H-1,2,5,7-tetraazabenzo[cd]azulen-7-yl)prop-2-en-1-one] | 1 to 100 nM | > 3000 nM |  |  |
| 0.0015 to 0.005 µM | < 0.0015 µM | C=CC(=O)N1CC(OC)c2nn(-c3ccc(C4CCC4)cc3)c3c2C(C1)N(C(=O)c1ccc(Br)c2[nH]cnc12)CC3 (stereo not drawn) [Compound 27, 1-(5-(7-bromo-1H-benzo[d]imidazole-4-carbonyl)-2-(4-cyclobutylphenyl)-9-methoxy-2,3,4,5,5a,6,8,9-octahydro-7H-1,2,5,7-tetraazabenzo[cd]azulen-7-yl)prop-2-en-1-one] | 1 to 100 nM | > 3000 nM |  |  |
| 0.005 to 0.015 µM | < 0.0015 µM | C=CC(=O)N1CCc2nn(-c3ccc(C(C)C)cc3O)c3c2C(C1)N(C(=O)c1ccc(Br)c2[nH]cnc12)CC3 (stereo not drawn) [Compound 20, 1-(5-(7-bromo-1H-benzo[d]imidazole-4-carbonyl)-2-(2-hydroxy-4-isopropylphenyl)-2,3,4,5,5a,6,8,9-octahydro-7H-1,2,5,7-tetraazabenzo[cd]azulen-7-yl)prop-2-en-1-one] | 1 to 100 nM | > 3000 nM |  |  |
| > 0.055 µM | 0.015 to 0.055 µM | C=CC(=O)N1CC(C)Oc2nn(-c3ccc(C(C)C)cc3)c3c2C(C1)N(C(=O)c1ccc(Br)c2[nH]cnc12)CC3 (stereo not drawn) [Compound 53, 1-(5-(7-bromo-1H-benzo[d]imidazole-4-carbonyl)-2-(4-isopropylphenyl)-9-methyl-2,3,4,5,5a,6,8,9-octahydro-7H-10-oxa-1,2,5,7-tetraazacycloocta[cd]inden-7-yl)prop-2-en-1-one] |  |  | 500 to 1000 nM | > 3000 nM |
| 0.005 to 0.015 µM | < 0.0015 µM | C=CC(=O)N1CCc2nn(-c3ccc(C4CC4)cc3O)c3c2C(C1)N(C(=O)c1ccc(Cl)nc1N)CC3 (stereo not drawn) [Compound 199, 1-(5-(2-amino-6-chloronicotinoyl)-2-(4-cyclopropyl-2-hydroxyphenyl)-2,3,4,5,5a,6,8,9-octahydro-7H-1,2,5,7-tetraazabenzo[cd]azulen-7-yl)prop-2-en-1-one] | 1 to 100 nM | > 3000 nM |  |  |
